Measurements: patent US20160193219A1, “SUBSTITUTED 2,3-DIHYDROIMIDAZO[1,2-C]QUINAZOLINE SALTS” (priority 2011, published 2016)
Read-outs that look alike come from different tables or passages of the source.

What was measured:
[1] = test system: BT474; experiment: Proliferation assay (Cell Titer-Glo, 72 h), BT474; details: Homo sapiens, BT-474, 72 h, BT474, Breast
[2] = test system: SK-Br-3; experiment: Proliferation assay (Cell Titer-Glo, 72 h), SK-Br-3; details: Homo sapiens, SK-BR-3, 72 h, SK-Br-3, Breast
[3] = test system: KPL4; experiment: Proliferation assay (Cell Titer-Glo, 72 h), KPL4; details: KPL4, 72 h
[4] = test system: MDA-MB-468; experiment: Proliferation assay (Cell Titer-Glo, 72 h), MDA-MB-468; details: MDA-MB-468, Breast, listed as free base
[5] = test system: LNCaP; experiment: Proliferation assay (Cell Titer-Glo, 72 h), LNCaP; details: Homo sapiens, 72 h, Prostate
[6] = test system: PC3; experiment: Proliferation assay (Cell Titer-Glo, 72 h), PC3; details: Homo sapiens, PC-3, 72 h, PC3, Prostate
[7] = test system: MCF7; experiment: Proliferation assay (Cell Titer-Glo, 72 h), MCF7; details: MCF7, Breast, listed as free base
[8] = test system: T47D; experiment: Proliferation assay (Cell Titer-Glo, 72 h), T47D; details: Breast, listed as free base
[9] = test system: HCT116; experiment: Proliferation assay (Cell Titer-Glo, 72 h), HCT116; details: Homo sapiens, HCT-116, 72 h, HCT116, Colon
[10] = test system: Colo205; experiment: Proliferation assay (Cell Titer-Glo, 72 h), Colo205; details: Colo205, Colon, listed as free base
[11] = test system: 786O; experiment: Proliferation assay (Cell Titer-Glo, 72 h), 786O; details: Kidney, listed as free base
[12] = test system: HT29; experiment: Proliferation assay (Cell Titer-Glo, 72 h), HT29; details: HT29, Colon, listed as free base
[13] = test system: A549; experiment: Proliferation assay (Cell Titer-Glo, 72 h), A549; details: Homo sapiens, A549, 72 h, A549, Lung
[14] = test system: BT20; experiment: Proliferation assay (Cell Titer-Glo, 72 h), BT20; details: BT20, Breast, listed as free base
[15] = Stability as solid (stored at 90° C. for 1 week, HPLC); assay type: physicochemical
[16] = test system: U87MG; experiment: Proliferation assay (Cell Titer-Glo, 72 h), U87MG; details: Homo sapiens, U-87 MG
[17] = test system: H460; experiment: Proliferation assay (Cell Titer-Glo, 72 h), H460; details: Homo sapiens, NCI-H460, 72 h, H460, Lung

Structure (SMILES): COc1c(OCCCN2CCOCC2)ccc2c1N=C(NC(=O)c1cnc(N)nc1)N1CCN=C21 [compound of formula (I), 2-amino-N-[7-methoxy-8-(3-morpholin-4-ylpropoxy)-2,3-dihydroimidazo[1,2-c]quinazolin-5-yl]pyrimidine-5-carboxamide]
- IC50 [1]: 5 nM
- IC50 [2]: 2 nM
- Appearance (0.1M HCl, 1 week, 25° C.): slightly colored solution
- Organic impurities, single (0.1M HCl, 1 week, 25° C.): 7.15 Area %
- Organic impurities, sum of all (0.1M HCl, 1 week, 25° C.): 24.27 Area %
- Appearance (0.1M HCl, 1 week, 70° C.): slightly colored solution
- Organic impurities, single (0.1M HCl, 1 week, 70° C.): 25.48 Area %
- Organic impurities, sum of all (0.1M HCl, 1 week, 70° C.): 100.00 Area %
- Appearance (0.1M HCl, 24 h, 25° C.): slightly colored solution
- Organic impurities, single (0.1M HCl, 24 h, 25° C.): 1.90 Area %
- Organic impurities, sum of all (0.1M HCl, 24 h, 25° C.): 8.75 Area %
- Appearance (0.1M HCl, 24 h, 70° C.): slightly colored solution
- Organic impurities, single (0.1M HCl, 24 h, 70° C.): 22.82 Area %
- Organic impurities, sum of all (0.1M HCl, 24 h, 70° C.): 92.49 Area %
- Appearance (0.1M HCl, Initial): slightly colored solution
- Organic impurities, single (0.1M HCl, Initial): 1.13 Area %
- Organic impurities, sum of all (0.1M HCl, Initial): 5.87 Area %
- Appearance (0.1M NaOH, 1 week, 25° C.): slightly colored solution
- Organic impurities, single (0.1M NaOH, 1 week, 25° C.): 22.03 Area %
- Organic impurities, sum of all (0.1M NaOH, 1 week, 25° C.): 86.64 Area %
- Appearance (0.1M NaOH, 1 week, 70° C.): slightly colored solution
- Organic impurities, single (0.1M NaOH, 1 week, 70° C.): 32.63 Area %
- Organic impurities, sum of all (0.1M NaOH, 1 week, 70° C.): 99.90 Area %
- Appearance (0.1M NaOH, 24 h, 25° C.): slightly colored solution
- Organic impurities, single (0.1M NaOH, 24 h, 25° C.): 10.02 Area %
- Organic impurities, sum of all (0.1M NaOH, 24 h, 25° C.): 45.40 Area %
- Appearance (0.1M NaOH, 24 h, 70° C.): slightly colored solution
- Organic impurities, single (0.1M NaOH, 24 h, 70° C.): 23.94 Area %
- Organic impurities, sum of all (0.1M NaOH, 24 h, 70° C.): 99.88 Area %
- Appearance (0.1M NaOH, Initial): slightly colored solution
- Organic impurities, single (0.1M NaOH, Initial): 6.51 Area %
- Organic impurities, sum of all (0.1M NaOH, Initial): 30.72 Area %
- Appearance (Buffer pH 7, 1 week, 25° C.): slightly colored turbid
- Organic impurities, single (Buffer pH 7, 1 week, 25° C.): 0.82 Area %
- Organic impurities, sum of all (Buffer pH 7, 1 week, 25° C.): 4.85 Area %
- Appearance (Buffer pH 7, 1 week, 70° C.): slightly colored solution
- Organic impurities, single (Buffer pH 7, 1 week, 70° C.): 39.01 Area %
- Organic impurities, sum of all (Buffer pH 7, 1 week, 70° C.): 97.65 Area %
- Appearance (Buffer pH 7, 24 h, 25° C.): slightly colored turbid
- Organic impurities, single (Buffer pH 7, 24 h, 25° C.): 0.20 Area %
- Organic impurities, sum of all (Buffer pH 7, 24 h, 25° C.): 3.22 Area %
- Appearance (Buffer pH 7, 24 h, 70° C.): slightly colored solution
- Organic impurities, single (Buffer pH 7, 24 h, 70° C.): 23.25 Area %
- Organic impurities, sum of all (Buffer pH 7, 24 h, 70° C.): 56.06 Area %
- Appearance (Buffer pH 7, Initial): slightly colored turbid
- Organic impurities, single (Buffer pH 7, Initial): 0.23 Area %
- Organic impurities, sum of all (Buffer pH 7, Initial): 3.15 Area %
- Appearance (Water, 1 week, 25° C.): slightly colored solution
- Organic impurities, single (Water, 1 week, 25° C.): 0.54 Area %
- Organic impurities, sum of all (Water, 1 week, 25° C.): 5.33 Area %
- Appearance (Water, 1 week, 70° C.): slightly colored solution
- Organic impurities, single (Water, 1 week, 70° C.): 45.44 Area %
- Organic impurities, sum of all (Water, 1 week, 70° C.): 98.59 Area %
- Appearance (Water, 24 h, 25° C.): slightly colored solution
- Organic impurities, single (Water, 24 h, 25° C.): 0.23 Area %
- Organic impurities, sum of all (Water, 24 h, 25° C.): 3.43 Area %
- Appearance (Water, 24 h, 70° C.): slightly colored solution
- Organic impurities, single (Water, 24 h, 70° C.): 25.89 Area %
- Organic impurities, sum of all (Water, 24 h, 70° C.): 58.00 Area %
- Appearance (Water, Initial): slightly colored solution
- Organic impurities, single (Water, Initial): 0.25 Area %
- Organic impurities, sum of all (Water, Initial): 2.79 Area %
- IC50 [3]: 3 nM
- IC50 [4]: 760 nM
- IC50 [5]: 69 nM
- IC50 [6]: 100 nM
- IC50 [7]: 27 nM
- IC50 [8]: 6 nM
- IC50 [9]: 56 nM
- IC50 [10]: 48 nM
- IC50 [11]: 116 nM
- IC50 [12]: 27 nM
- IC50 [13]: 37 nM
- IC50 [14]: 6 nM
- stability in solid form [15]: stable in solid form
- therm. stab. solid ([15]; 1 w @ 90° C.): ++
- IC50 [16]: 85 nM
- IC50 [17]: 46 nM
